One block for each molecule: values may come before it.
How the values were obtained:
Type in all cases: physicochemical
[1] = Dissolution and release of microcrystalline ondansetron; conditions: particle size smaller than 200 microns
Source text: It has been further discovered that ondansetron base having a particle size smaller than 200 microns (hereinafter “microcrystalline ondansetron”) is more suitable in making pharmaceutical formulations.

[2] = Hydration of solid ondansetron base on exposure to humidity
Source text: After storage of the anhydrate form at humidity exceeding 10% RH, hydrates may be formed. A stable hydrated form comprise 1.3-1.5% of water, this corresponding to approximately 0.25 molar equivalent of water (a hemi-hemihydrate). Accordingly, another ondansetron form of the present invention is an ondansetron hydrate comprising ondansetron and water wherein the amount of water relative to ondansetron is within the range of 0.23-0.27 moles, more preferably 0.24-0.26 moles, per each one mole of ondansetron. Exposure of this or the anhydrated product to enhanced humidity (70% RH) results in a product having about 3% water content which corresponds to a hemihydrate (0.5 molar equivalent of water). Exposure to extreme humidity of about 90% or more leads to a monohydrate form of about 5% water. The most useful hydrated form of ondansetron base is the hemi-hemi hydrate as this is formed under most precipitation conditions and is stable. The above forms I or II are preferably hydrates containing 1.3-1.5% of water.

[3] = Solvent-induced conversion between forms by slurrying
Source text: It is sensitive to a solvent-induced conversion into a form II defined below by slurrying in some polar solvents, e.g. in methanol or water, while it is inert to the same slurrying or solvent treatment in non-polar solvents. […] Form II is resistant to a solvent-inducing conversion to form I at ambient temperature.

[4] = Storage stability of solid ondansetron forms

dissolution in liquid medium ([1]; making liquid compositions): dissolves more rapidly
release from the tablet composition [1]: releases more rapidly
SMILES: Cc1nccn1CC1CCc2c(c3ccccc3n2C)C1=O (stereo not shown) [microcrystalline ondansetron]

water content after exposure to humidity ([2]; enhanced humidity (70% RH), corresponds to a hemihydrate): about 3%
water content after exposure to humidity ([2]; extreme humidity of about 90% or more, monohydrate form): about 5%
SMILES: Cc1nccn1CC1CCc2c(c3ccccc3n2C)C1=O (stereo not shown) [ondansetron base]

solvent-induced conversion into form II ([3]; slurrying in some polar solvents, e.g. methanol or water): sensitive
solvent-induced conversion into form II ([3]; slurrying or solvent treatment in non-polar solvents): inert
stability during storage ([4]; storage at ambient and elevated temperatures): sufficiently stable
SMILES: Cc1nccn1CC1CCc2c(c3ccccc3n2C)C1=O (stereo not shown) [form I]

solvent-inducing conversion to form I ([3]; ambient temperature): resistant
form conversion during storage ([4]; prolonged storage at 40° C./75% relative humidity (RH)): partial conversion to Form I
stability during storage ([4]; room temperature, stored in closed vial): stable
SMILES: Cc1nccn1CC1CCc2c(c3ccccc3n2C)C1=O (stereo not shown) [Form II]

Reference: patent US20040198794A1, “Ondansetron forms and processes of making the same” (priority 2003, published 2004)
